Experiments:
Assay type in all cases: in vivo
[1] = system: Rhipicephalus (Boophilus) microplus larvae (strain Parkhurst, resistant against synthetic pyrethroids); experiment: Rhipicephalus (Boophilus) microplus in-vitro contact test, larval cattle tick; conditions: after 48 hours, read-out: efficacy (larvae dead or moribund); for pest or weed control at 1 µg/cm2, 100 g/ha: 1 μg/cm^2 (=100 g/ha); for pest or weed control at 5 µg/cm2, 500 g/ha: 5 μg/cm^2 (=500 g/ha)
How it was run: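 Pyrethroid-resistant larvae (strain Parkhurst), 20–50 per tube, exposed by contact to a dried acetone film of compound (5 μg/cm² at 900 ppm) for 48 h at 27 °C and 85% humidity. Percent dead or moribund larvae scored from negative geotactic behaviour.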

[2] = system: brown planthopper (Nilaparvata lugens); experiment: Nilaparvata lugens spray test; conditions: 96 h, 100 g/ha, rice plants, after 4 days
Experimental: Nilaparvata lugens—Spray Test
Solvent: 78.0 parts by weight of acetone • • 1.5 parts by weight of dimethylformamide
Emulsifier: alkylarylpolyglycol ether
To produce a suitable preparation of active compound, 1 part by weight of active compound is mixed with the stated amount of solvents and is diluted with water, containing an emulsifier concentration of 1000 ppm, to the desired concentration. Further test concentrations are prepared by dilution with emulsifier containing water.
Rice plants (Oryza sativa) are sprayed with a preparation of the active ingredient of the desired concentration and the plants are infested with the brown planthopper (Nilaparvata lugens).
After 4 days mortality in % is determined. 100% means all planthoppers have been killed and 0% means none of the planthoppers have been killed.

[3] = system: green peach aphid (Myzus persicae); experiment: Myzus persicae spray test; conditions: foliar, 120 h, Chinese cabbage leaf disks, after 5 days
How it was run: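 Chinese cabbage leaf disks carrying all instars of M. persicae sprayed with compound in acetone/DMF, diluted in water with 1000 ppm alkylarylpolyglycol ether emulsifier. Percent mortality scored after 5 days (100% = all aphids killed).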

[4] = system: adult engorged female ticks (Rhipicephalus microplus); experiment: Rhipicephalus (Boophilus) microplus injection test; conditions: 168 h, 4 μg/animal, egg deposition after 7 days, read-out: efficacy (infertile eggs)
How it was run: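 Abdominal injection, 1 μL compound/DMSO, n=5 engorged adult females; climate-chamber incubation. Readout d7: fertile egg laying; doubtful eggs held to hatch (~42 d). % efficacy = infertile eggs (100% all infertile).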

[5] = system: adult cat fleas (Ctenocephalides felis); experiment: Ctenocephalides felis in-vitro contact test, adult cat flea; conditions: 5 μg/cm^2 (=500 g/ha), after 48 hours, read-out: efficacy (fleas dead or moribund)
How it was run: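 Acetone solution coated onto glass tube walls; 900 ppm gives 5 μg/cm². Once dry, 5–10 adult fleas per tube held at room temperature for 48 h. Efficacy (%) is the share of fleas dead or moribund, i.e. unable to climb away on a 45–50° C heating plate.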

[6] = system: adult brown dog ticks (Rhipicephalus sanguineus); experiment: Rhipicephalus sanguineus in-vitro contact test, adult brown dog ticks; conditions: 48 h, 5 μg/cm^2 (=500 g/ha), after 48 hours, read-out: efficacy (ticks dead or moribund)
How it was run: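 Acetone solution coated on glass tube inner walls (900 ppm, giving 5 μg/cm^2); after drying, 5–10 adult ticks added and kept 48 h at room temperature. Efficacy scored as percent dead or moribund, i.e., ticks unable to climb away on a 45–50 °C heating plate within 5 min.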

Structure (SMILES) | pest or weed control at 1 µg/cm2, 100 g/ha [1] [%] | pest or weed control at 5 µg/cm2, 500 g/ha [1] [%] | mortality at 100 g/ha [2] [%] | mortality at 100 g/ha [3] [%] | pest or weed control at 0.004 mg [4] [%] | pest or weed control at 5 µg/cm2, 500 g/ha [5] [%] | pest or weed control at 5 µg/cm2, 500 g/ha [6] [%]
CC(NC(=O)c1cc(C(F)(F)F)cc(C(F)(F)F)c1)c1nccnc1-c1ncccn1 (racemic) [Example I-8, (rac)-N-(1-(3-(Pyrimidin-2-yl)pyrazin-2-yl)ethyl)-3,5-bis(trifluoromethyl)benzamide] | 100 | 100 | 100 | 100 | 100 |  | 
CC(NC(=O)c1cc(Cl)cc(C(F)(F)F)c1)c1nccnc1-c1ncccn1 (racemic) [Example I-10, (rac)-3-Chloro-N-(1-(3-(pyrimidin-2-yl)pyrazin-2-yl)ethyl)-5-(trifluoromethyl)benzamide] | 90 | 80 |  | 100 | 100 | 80 | 80
